{
  "source": "ChEMBL document CHEMBL4665764",
  "about": "“Synthesis and Biological Evaluation of Celastrol Derivatives as Potential Immunosuppressive Agents” (J Nat Prod, 2020)",
  "key": {"[1]": {"experiment": "Anti-inflammatory activity in BALB/c mouse T cell assessed as assessed as TNF-alpha level at 1 uM after 48 hrs by ELISA (reference value: 375.8 +/- 19.6 pg/ml)", "assay_type": "functional, T cell line"}, "[2]": {"experiment": "Antiproliferative activity against Con A-induced BALB/c mouse T cell after 48 hrs by CCK8 assay", "assay_type": "functional, tissue-based, T cell line"}, "[3]": {"experiment": "Anti-inflammatory activity in BALB/c mouse T cell assessed as assessed as IL-2 level at 0.1 uM after 48 hrs by ELISA (reference value: 152.9 +/- 8.7 pg/ml)", "assay_type": "functional, T cell line"}, "[4]": {"experiment": "Induction of apoptosis in Con A-induced BALB/c mouse T cell assessed as viable cells at 0.01 uM after 48 hrs by Annexin V-FITC/propidium iodide staining based FACS assay (reference value: 63.3%)", "assay_type": "functional, T cell line"}, "T cell line [5]": {"system": "T cell line", "experiment": "Induction of apoptosis in BALB/c mouse T cell assessed as assessed as increase in caspase 3 >=1 uM", "assay_type": "functional, tissue-based", "conditions": "dose microM >=1"}, "[6]": {"experiment": "Induction of apoptosis in Con A-induced BALB/c mouse T cell assessed as necrotic cells at 1 uM after 48 hrs by Annexin V-FITC/propidium iodide staining based FACS assay (reference value: 2.9%)", "assay_type": "functional, T cell line"}, "[7]": {"experiment": "Induction of apoptosis in Con A-induced BALB/c mouse T cell assessed as late apoptotic cells at 1 uM after 48 hrs by Annexin V-FITC/propidium iodide staining based FACS assay (reference value: 7.3%)", "assay_type": "functional, T cell line"}, "[8]": {"experiment": "Induction of apoptosis in Con A-induced BALB/c mouse T cell assessed as late apoptotic cells at 0.1 uM after 48 hrs by Annexin V-FITC/propidium iodide staining based FACS assay (reference value: 7.3%)", "assay_type": "functional, T cell line"}, "[9]": {"experiment": "Anti-inflammatory activity in BALB/c mouse T cell assessed as assessed as IL-2 level at 1 uM after 48 hrs by ELISA (reference value: 152.9 +/- 8.7 pg/ml)", "assay_type": "functional, T cell line"}, "[10]": {"experiment": "Anti-inflammatory activity in BALB/c mouse T cell assessed as assessed as IL-4 level at 0.01 uM after 48 hrs by ELISA (reference value: 167.8 +/- 9.4 pg/ml)", "assay_type": "functional, T cell line"}, "[11]": {"molecular_target": "Proto-oncogene tyrosine-protein kinase LCK (Mus musculus) (UniProt P06240)", "sequence (P06240 2-509 limits assumed)": "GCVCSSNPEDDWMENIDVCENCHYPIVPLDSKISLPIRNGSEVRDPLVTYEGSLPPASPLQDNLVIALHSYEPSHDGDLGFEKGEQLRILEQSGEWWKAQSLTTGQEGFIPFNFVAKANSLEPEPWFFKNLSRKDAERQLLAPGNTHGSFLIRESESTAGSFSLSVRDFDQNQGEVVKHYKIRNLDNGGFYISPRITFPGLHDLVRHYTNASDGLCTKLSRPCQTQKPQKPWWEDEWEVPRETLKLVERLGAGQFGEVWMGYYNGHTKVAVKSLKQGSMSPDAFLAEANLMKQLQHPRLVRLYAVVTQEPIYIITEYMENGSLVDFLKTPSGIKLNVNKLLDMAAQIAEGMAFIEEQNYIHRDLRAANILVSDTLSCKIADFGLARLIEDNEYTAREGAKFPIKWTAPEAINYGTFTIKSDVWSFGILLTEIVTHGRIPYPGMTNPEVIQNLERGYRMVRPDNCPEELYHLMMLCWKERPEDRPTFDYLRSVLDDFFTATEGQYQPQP", "experiment": "Inhibition of LCK phosphorylation in Con-A induced BALB/c mouse T cell by Western blot analysis", "assay_type": "tissue-based", "conditions": "T cell line"}, "[12]": {"experiment": "Induction of apoptosis in Con A-induced BALB/c mouse T cell assessed as early apoptotic cells at 0.1 uM after 48 hrs by Annexin V-FITC/propidium iodide staining based FACS assay (reference value: 26.5%)", "assay_type": "functional, T cell line"}, "[13]": {"experiment": "Anti-inflammatory activity in BALB/c mouse T cell assessed as assessed as IL-2 level at 0.01 uM after 48 hrs by ELISA (reference value: 152.9 +/- 8.7 pg/ml)", "assay_type": "functional, T cell line"}, "[14]": {"experiment": "Induction of apoptosis in Con A-induced BALB/c mouse T cell assessed as viable cells at 0.1 uM after 48 hrs by Annexin V-FITC/propidium iodide staining based FACS assay (reference value: 63.3%)", "assay_type": "functional, T cell line"}, "[15]": {"molecular_target": "T1, Tyrosine-protein kinase ZAP-70 (Mus musculus) (UniProt P43404)", "T1 sequence (whole entry)": "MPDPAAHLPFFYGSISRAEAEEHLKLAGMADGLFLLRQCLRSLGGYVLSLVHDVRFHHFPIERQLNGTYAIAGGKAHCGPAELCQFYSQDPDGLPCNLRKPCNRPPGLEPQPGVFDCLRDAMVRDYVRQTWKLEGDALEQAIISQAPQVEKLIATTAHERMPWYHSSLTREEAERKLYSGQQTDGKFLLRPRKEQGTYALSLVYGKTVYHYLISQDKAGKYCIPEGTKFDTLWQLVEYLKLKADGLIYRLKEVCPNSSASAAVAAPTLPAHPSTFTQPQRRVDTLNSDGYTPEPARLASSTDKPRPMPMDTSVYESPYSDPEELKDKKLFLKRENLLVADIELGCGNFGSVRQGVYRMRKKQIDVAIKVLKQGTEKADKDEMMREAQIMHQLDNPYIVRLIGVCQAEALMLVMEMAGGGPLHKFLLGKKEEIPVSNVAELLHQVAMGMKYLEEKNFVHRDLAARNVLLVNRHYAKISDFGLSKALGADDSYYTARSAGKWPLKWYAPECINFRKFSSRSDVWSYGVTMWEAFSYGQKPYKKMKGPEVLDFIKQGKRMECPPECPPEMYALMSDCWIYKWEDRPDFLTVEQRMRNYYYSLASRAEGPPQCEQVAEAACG", "experiment": "Inhibition of ZAP70 phosphorylation in Con-A induced BALB/c mouse T cell by Western blot analysis", "assay_type": "tissue-based", "conditions": "T cell line"}, "[16]": {"experiment": "Induction of apoptosis in Con A-induced BALB/c mouse T cell assessed as early apoptotic cells at 0.01 uM after 48 hrs by Annexin V-FITC/propidium iodide staining based FACS assay (reference value: 26.5%)", "assay_type": "functional, T cell line"}, "[17]": {"experiment": "Anti-inflammatory activity in BALB/c mouse T cell assessed as assessed as TNF-alpha level at 0.1 uM after 48 hrs by ELISA (reference value: 375.8 +/- 19.6 pg/ml)", "assay_type": "functional, T cell line"}, "[18]": {"experiment": "Anti-inflammatory activity in BALB/c mouse T cell assessed as assessed as IL-4 level at 1 uM after 48 hrs by ELISA (reference value: 167.8 +/- 9.4 pg/ml)", "assay_type": "functional, T cell line"}, "[19]": {"experiment": "Induction of apoptosis in Con A-induced BALB/c mouse T cell assessed as viable cells at 1 uM after 48 hrs by Annexin V-FITC/propidium iodide staining based FACS assay (reference value: 63.3%)", "assay_type": "functional, T cell line"}, "T cell line [20]": {"system": "T cell line", "experiment": "Induction of apoptosis in BALB/c mouse T cell assessed as increase in Bax at >=1 uM by Western blot analysis", "assay_type": "functional", "conditions": "dose microM >=1"}, "[21]": {"experiment": "Cytotoxicity against BALB/c mouse T cell assessed as reduction in cell viability after 48 hrs by CCK8 assay", "assay_type": "tissue-based, T cell line", "conditions": "BALB/c mouse T cells"}, "[22]": {"experiment": "Induction of apoptosis in Con A-induced BALB/c mouse T cell assessed as necrotic cells at 0.01 uM after 48 hrs by Annexin V-FITC/propidium iodide staining based FACS assay (reference value: 2.9%)", "assay_type": "functional, T cell line"}, "[23]": {"experiment": "Selectivity index, ratio of CC50 for cytotoxicity against BALB/c mouse T cell to IC50 for antiproliferative activity against Con A-induced BALB/c mouse T cell", "set-up": "species or system T cell line"}, "[24]": {"experiment": "Induction of apoptosis in Con A-induced BALB/c mouse T cell assessed as late apoptotic cells at 0.01 uM after 48 hrs by Annexin V-FITC/propidium iodide staining based FACS assay (reference value: 7.3%)", "assay_type": "functional, T cell line"}, "[25]": {"experiment": "Anti-inflammatory activity in BALB/c mouse T cell assessed as assessed as TNF-alpha level at 0.01 uM after 48 hrs by ELISA (reference value: 375.8 +/- 19.6 pg/ml)", "assay_type": "functional, T cell line"}, "[26]": {"experiment": "Induction of apoptosis in Con A-induced BALB/c mouse T cell assessed as necrotic cells at 0.1 uM after 48 hrs by Annexin V-FITC/propidium iodide staining based FACS assay (reference value: 2.9%)", "assay_type": "functional, T cell line"}, "[27]": {"experiment": "Induction of apoptosis in Con A-induced BALB/c mouse T cell assessed as early apoptotic cells at 1 uM after 48 hrs by Annexin V-FITC/propidium iodide staining based FACS assay (reference value: 26.5%)", "assay_type": "functional, T cell line"}, "T cell line [28]": {"system": "T cell line", "experiment": "Induction of apoptosis in BALB/c mouse T cell assessed as assessed as increase in caspase 9 >=1 uM", "assay_type": "functional, tissue-based", "conditions": "dose microM >=1"}, "T cell line [29]": {"system": "T cell line", "experiment": "Induction of mitochondrial membrane disruption in BALB/c mouse T cell assessed as increase in cytochrome c release from mitochondria to cytosol at >=1 uM by Western blot analysis", "assay_type": "functional", "conditions": "dose microM >=1"}, "[30]": {"experiment": "Anti-inflammatory activity in BALB/c mouse T cell assessed as assessed as IL-4 level at 0.1 uM after 48 hrs by ELISA (reference value: 167.8 +/- 9.4 pg/ml)", "assay_type": "functional, T cell line"}, "T cell line [31]": {"system": "T cell line", "experiment": "Induction of apoptosis in BALB/c mouse T cell assessed as increase in Bcl2 at >=1 uM by Western blot analysis", "assay_type": "functional", "conditions": "dose microM >=1"}},
  "note": "Calls of active or inactive are those of the source. No cut-off for these calls is given here.",
  "data": [
    {"smiles": "CNC(=O)[C@]1(C)CC[C@]2(C)CC[C@]3(C)C4=CC=C5C(=CC(=O)C(O)=C5C)[C@]4(C)CC[C@@]3(C)[C@@H]2C1", "values": [
      {"measurement": "Activity", "setting": "[1]", "result": 142.9, "unit": "pg/mL"},
      {"measurement": "IC50", "setting": "[2]", "result": 25, "unit": "nM"},
      {"measurement": "Activity", "setting": "[3]", "result": 79.1, "unit": "pg/mL"},
      {"measurement": "Activity", "setting": "[4]", "result": 63.4, "unit": "%"},
      {"measurement": "Activity", "setting": "T cell line [5]", "result": "Active"},
      {"measurement": "Activity", "setting": "[6]", "result": 1, "unit": "%"},
      {"measurement": "Activity", "setting": "[7]", "result": 8.5, "unit": "%"},
      {"measurement": "Activity", "setting": "[8]", "result": 9.5, "unit": "%"},
      {"measurement": "Activity", "setting": "[9]", "result": 51.1, "unit": "pg/mL"},
      {"measurement": "Activity", "setting": "[10]", "result": 135.2, "unit": "pg/mL"},
      {"measurement": "inhibition", "setting": "[11]", "result": "Dose-dependent effect"},
      {"measurement": "Activity", "setting": "[12]", "result": 43.6, "unit": "%"},
      {"measurement": "Activity", "setting": "[13]", "result": 128.7, "unit": "pg/mL"},
      {"measurement": "Activity", "setting": "[14]", "result": 46.3, "unit": "%"},
      {"measurement": "inhibition", "setting": "[15]", "result": "Dose-dependent effect"},
      {"measurement": "Activity", "setting": "[16]", "result": 27.9, "unit": "%"},
      {"measurement": "Activity", "setting": "[17]", "result": 204.1, "unit": "pg/mL"},
      {"measurement": "Activity", "setting": "[18]", "result": 39.1, "unit": "pg/mL"},
      {"measurement": "Activity", "setting": "[19]", "result": 34.5, "unit": "%"},
      {"measurement": "Activity", "setting": "T cell line [20]", "result": "Active"},
      {"measurement": "CC50 at 48 h", "setting": "[21]", "result": 1200, "unit": "nM"},
      {"measurement": "Activity", "setting": "[22]", "result": 1.7, "unit": "%"},
      {"measurement": "Ratio CC50/IC50", "setting": "[23]", "result": 47.7},
      {"measurement": "Activity", "setting": "[24]", "result": 7, "unit": "%"},
      {"measurement": "Activity", "setting": "[25]", "result": 264.5, "unit": "pg/mL"},
      {"measurement": "Activity", "setting": "[26]", "result": 0.5, "unit": "%"},
      {"measurement": "Activity", "setting": "[27]", "result": 56, "unit": "%"},
      {"measurement": "Activity", "setting": "T cell line [28]", "result": "Active"},
      {"measurement": "Activity", "setting": "T cell line [29]", "result": "Active"},
      {"measurement": "Activity", "setting": "[30]", "result": 78.2, "unit": "pg/mL"},
      {"measurement": "Activity", "setting": "T cell line [31]", "result": "Active"}
    ]}
  ]
}
